Data on two compounds can be found in patent US4104469A, “7-(Syn-α-alkoxy-iminofuryl)acetamido-3-(2-methyl-2,3-dihydro-s-t riazolo[4,3-b]pyridazin-3-on-6-ylthiomethyl)-3-cephem-4-carboxylic acids” (Bristol-Myers Company, priority 1977, dated 1978).

Each structure is given as a SMILES string. Counter-ions that a name gives are not always drawn. Like-named read-outs stand apart in the source and are kept apart here.

What all share (assay type): cell-based
One assay deals with D. pneumoniae. The assay is described as follows: In vitro antibacterial activity, Mueller-Hinton agar serial dilution (Table 1). The conditions noted are these: Streptococcus pneumoniae, 5 strains, serial dilution method, read-out: Geometric Mean of MIC. The source says:
(§1) In vitro Activity Using Mueller-Hinton Agar
(§2) By the Serial Dilution Method

In assay [1] the test system is E. coli. Described as above. The conditions noted are these: Escherichia coli, 7 strains, serial dilution method, read-out: Geometric Mean of MIC.
Description: as §1, §2

The subject of the next assay is H. influenzae. Described as above. The conditions noted are these: Haemophilus influenzae, 7 strains, serial dilution method, read-out: Geometric Mean of MIC.
Description: as §1, §2

The next assay relates to Kl. pneumoniae. The assay is described as above. The conditions noted are these: Klebsiella pneumoniae, 4 strains, serial dilution method, read-out: Geometric Mean of MIC.
Description: as §1, §2

The next assay relates to N. gonorrhoeae. Described as above. The conditions noted are these: Neisseria gonorrhoeae, 5 strains, serial dilution method, read-out: Geometric Mean of MIC.
Description: as §1, §2

The test system of the next assay is N. meningitidis. Described as above. The conditions noted are these: Neisseria meningitidis, 5 strains, serial dilution method, read-out: Geometric Mean of MIC.
Description: as §1, §2

The subject of a further assay is Proteus. The assay is described as above. The conditions noted are these: read-out: Geometric Mean of MIC.
Description: as §1, §2

The next assay concerns S. aureus. The assay is described as above. The conditions noted are these: Staphylococcus aureus, 3 strains, serial dilution method, read-out: Geometric Mean of MIC.
Description: as §1, §2

In another assay the test system is S. pyogenes. Described as above. The conditions noted are these: Streptococcus pyogenes, read-out: Geometric Mean of MIC.
Description: as §1, §2

The test system of the next assay is S. viridans. The description is as above. The conditions noted are these: Streptococcus viridans, 5 strains, serial dilution method, read-out: Geometric Mean of MIC.
Description: as §1, §2

Assay [2] deals with Shig.(3), Serr.(1) Enterab.(1), Sal.(2) B. -B. (1). The description is as above. The conditions noted are these: pooled Shig.(3), serial dilution method, read-out: Geometric Mean of MIC.
Description: as §1, §2

The test system of a further assay is E. cloacae. The assay is described as follows: MIC on Mueller-Hinton agar (Table 2). The conditions noted are these: Enterobacter cloacae, 1 strain, read-out: Geometric Means of MIC's. The text has this: (§3) Geometric Means of MIC's Against 3 Strains
(§4) of S. aureus and 27 Strains of Gram-negative Bacteria
(§5) (mcg./ml., Mueller-Hinton Agar)

Another assay deals with E. coli, Cephalosporin-R. The assay is described as follows: MIC on Mueller-Hinton agar (Table 2). The conditions noted are these: Escherichia coli, 1 strain, read-out: Geometric Means of MIC's.
Description: as §3, §4, §5

Assay [3] has as its system E. coli. The assay can be described thus: MIC on Mueller-Hinton agar (Table 2). The conditions noted are these: Escherichia coli, 6 strains, read-out: Geometric Means of MIC's.
Description: as §3, §4, §5

Assay [4] deals with Indole (+) Proteus, Cephalosporin-R. The assay can be described thus: MIC on Mueller-Hinton agar (Table 2). The conditions noted are these: 2 strains, read-out: Geometric Means of MIC's.
Description: as §3, §4, §5

A further assay relates to Indole (+) Proteus. The assay can be described thus: MIC on Mueller-Hinton agar (Table 2). The conditions noted are these: 3 strains, read-out: Geometric Means of MIC's.
Description: as §3, §4, §5

In a further assay the test system is Indole (-) Proteus. The assay can be described thus: MIC on Mueller-Hinton agar (Table 2). The conditions noted are these: 2 strains, read-out: Geometric Means of MIC's.
Description: as §3, §4, §5

In a further assay the test system is K. pneumoniae. The assay is described as follows: MIC on Mueller-Hinton agar (Table 2). The conditions noted are these: Klebsiella pneumoniae, 4 strains, read-out: Geometric Means of MIC's.
Description: as §3, §4, §5

The subject of another assay is P. aeruginosa. The assay is described as follows: MIC on Mueller-Hinton agar (Table 2). The conditions noted are these: Pseudomonas aeruginosa, 2 strains, read-out: Geometric Means of MIC's.
Description: as §3, §4, §5

For another assay, the system named is S. aureus, Penicillin-R. The assay is described as follows: MIC on Mueller-Hinton agar (Table 2). The conditions noted are these: Staphylococcus aureus, 2 strains, read-out: Geometric Means of MIC's.
Description: as §3, §4, §5

For assay [5], the system named is S. marcescens. The assay can be described thus: MIC on Mueller-Hinton agar (Table 2). The conditions noted are these: Serratia marcescens, 1 strain, read-out: Geometric Means of MIC's.
Description: as §3, §4, §5

The subject of the next assay is Shigella, Salmonella. The assay can be described thus: MIC on Mueller-Hinton agar (Table 2). The conditions noted are these: 5 strains, read-out: Geometric Means of MIC's.
Description: as §3, §4, §5

For assay [6], the system named is S. marcescens. The assay is described as follows: MIC against 18 strains of S. marcescens (Table 3). The conditions noted are these: Serratia marcescens, read-out: Geometric Means of MIC's. The text has this:
| Geometric Means of MIC's Against 18 Strains |of S. marcescens

The subject of a further assay is bacteria. The assay is described as follows: In vitro antibacterial potency. The conditions noted are these: compared with corresponding compound lacking 2-methyl group (BB-S515).

With `CO/N=C(\C(=O)N[C@@H]1C(=O)N2C(C(=O)O)=C(CSc3ccc4n[nH]c(=O)n4n3)CS[C@H]12)c1ccco1` [BB-S515, 7-[(2Z)-2-methoxyimino(fur-2-yl)acetamido]-3-(2,3-dihydro-s-triazolo[4,3-b]pyridazin-3-on-6-ylthiomethyl)-3-cephem-4-carboxylic acid sodium salt, reference compound], the MIC in the assay with D. pneumoniae came out at 0.1 µg/mL; with E. coli [1], 2.33 µg/mL; in the assay with H. influenzae, 2.11 µg/mL; in the assay on Kl. pneumoniae, 3.1 µg/mL; in the assay on N. gonorrhoeae, 2.07 µg/mL; with N. meningitidis, 5.45 µg/mL. The MIC with Proteus was determined as 1.11 µg/mL; with S. aureus, 2.48 µg/mL; in the assay on S. pyogenes, 0.032 µg/mL; with S. viridans, 0.59 µg/mL; in assay [2], 5.26 µg/mL.
`CO/N=C(\C(=O)N[C@@H]1C(=O)N2C(C(=O)O)=C(CSc3ccc4nn(C)c(=O)n4n3)CS[C@H]12)c1ccco1` [BB-S510, 7-[(2Z)-2-methoxyimino(fur-2-yl)acetamido]-3-(2-methyl-2,3-dihydro-s-triazolo[4,3-b]pyridazin-3-on-6-ylthiomethyl)-3-cephem-4-carboxylic acid sodium salt]: the MIC with D. pneumoniae is 0.021 µg/mL; in the assay with E. coli [1] it was 2.11 µg/mL; with H. influenzae it was 0.35 µg/mL; with Kl. pneumoniae it was 6.3 µg/mL; in the assay with N. gonorrhoeae it was 0.26 µg/mL; with N. meningitidis it was 1.03 µg/mL. The MIC in the assay on Proteus (6 strains, Mueller-Hinton agar, serial dilution method) is 1.39 µg/mL; in the assay with S. aureus, 0.62 µg/mL; with S. pyogenes (5 strains, Mueller-Hinton agar, serial dilution method), 0.0125 µg/mL; in the assay with S. viridans, 0.13 µg/mL; in assay [2], 6.26 µg/mL; with E. cloacae, 3.1 µg/mL. Also, the MIC in the assay on E. coli, Cephalosporin-R is 3.1 µg/mL; with E. coli [3], 0.1 µg/mL; in [4], 6.3 µg/mL; with Indole (+) Proteus, 0.2 µg/mL; in the assay on Indole (-) Proteus, 1.1 µg/mL; in the assay with K. pneumoniae it was 2.6 µg/mL. The MIC in the assay with P. aeruginosa is more than 100 µg/mL; in the assay on S. aureus, Penicillin-R, 0.1 µg/mL; with S. marcescens [5] it was 6.3 µg/mL; with Shigella, Salmonella it was 0.5 µg/mL; in the assay with S. marcescens [6], 7.9 µg/mL. The “in vitro antibacterial potency” value with bacteria was “considerably superior”.
